Data set [1] concerns the target T1, wildtype human PGHS-1 (Homo sapiens, UniProt P23219). Put plainly: Reversible COX inhibition by NS-398, substrate dependence of COX activity. In kind it is biochemical. The conditions noted are these: double reciprocal plot.
In data set [2] the test system is PGHS-1. The settings on record: cited from earlier work.
In data set [3] the target is T1, wildtype human PGHS-1. Put plainly: COX kinetic parameters, oxygen uptake vs arachidonate. In kind it is biochemical. The conditions noted are these: read-out: COX Km (μM arachidonate), WT, 37 °C, 100 μM HOOH.
For data set [4], the target named is T2, R108Q variant of human PGHS-1 (Homo sapiens, UniProt P23219, R108Q). The data set is described as above. It counts as biochemical.
T2 sequence (P23219 24-599 R108Q): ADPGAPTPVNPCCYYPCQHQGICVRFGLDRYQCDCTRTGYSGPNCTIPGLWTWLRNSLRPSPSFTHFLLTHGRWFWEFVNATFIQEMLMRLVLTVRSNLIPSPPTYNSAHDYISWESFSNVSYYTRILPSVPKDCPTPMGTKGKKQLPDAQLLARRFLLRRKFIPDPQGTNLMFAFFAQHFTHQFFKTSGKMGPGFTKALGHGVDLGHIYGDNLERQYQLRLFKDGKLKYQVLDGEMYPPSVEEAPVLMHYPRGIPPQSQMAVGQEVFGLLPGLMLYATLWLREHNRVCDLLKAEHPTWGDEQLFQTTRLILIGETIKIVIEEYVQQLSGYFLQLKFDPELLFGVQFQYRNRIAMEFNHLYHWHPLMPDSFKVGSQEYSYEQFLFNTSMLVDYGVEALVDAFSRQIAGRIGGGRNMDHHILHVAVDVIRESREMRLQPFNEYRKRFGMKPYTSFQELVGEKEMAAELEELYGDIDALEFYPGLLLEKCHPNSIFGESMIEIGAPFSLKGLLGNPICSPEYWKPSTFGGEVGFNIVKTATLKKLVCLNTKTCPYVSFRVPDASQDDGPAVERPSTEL
For data set [5], the target named is T3, PGHS-1 L237M variant (Homo sapiens, UniProt P23219, L237M). The description is as above. It counts as biochemical. The conditions noted are these: read-out: COX Km (μM arachidonate), 0.025% Tween 20, 37 °C.
T3 sequence (P23219 24-599 L237M): as the sequence (P23219 24-599 R108Q) above, with Q85R, L214M counted along it
For data set [6], the target named is T4, PGHS-1 V481I variant (Homo sapiens, UniProt P23219, V481I). The data set is described as above. It counts as biochemical. The settings on record: read-out: COX Km (μM arachidonate), 0.025% Tween 20, 37 °C.
T4 sequence (P23219 24-599 V481I): as the sequence (P23219 24-599 R108Q) above, with Q85R, V458I counted along it
Data set [7] has as its target T1, wildtype human PGHS-1. Description: Timed preincubation with aspirin, decay of surviving COX activity. In kind it is biochemical. The settings on record: WT; 37 °C; preincubation with 0.4-5.3 mM aspirin; average ± SD.
For a further data set, the target named is PGHS-1 R53H variant (Homo sapiens, UniProt P23219, R53H). The data set is described as above. In kind it is biochemical. The settings on record: 37 °C, preincubation with 0.4-5.3 mM aspirin, average ± SD.
Chain of PGHS-1 R53H variant (P23219 24-599 R53H): as the sequence (P23219 24-599 R108Q) above, with R30H, Q85R counted along it
Data set [8] has as its target T2, R108Q variant of human PGHS-1. The data set is described as above. It counts as biochemical.
Data set [9] has as its target T3, PGHS-1 L237M variant. The data set is described as above. It counts as biochemical. The settings on record: 37 °C, preincubation with 0.4-5.3 mM aspirin, average ± SD.
In data set [10] the target is T4, PGHS-1 V481I variant. The data set is described as above. In kind it is biochemical. The settings on record: 37 °C, preincubation with 0.4-5.3 mM aspirin, average ± SD.
Data set [11] concerns the target T2, R108Q variant of human PGHS-1. Put plainly: Analysis of Ki and k2 values for aspirin. In kind it is biochemical. The settings on record: 20 °C, aspirin potassium salt.
A further data set deals with ovine PGHS-1. The conditions noted are these: cited from earlier work.
For data set [12], the system named is PGHS-1. The settings on record: in blood ex vivo; cited from earlier work.
For data set [13] the following is noted: hydrolysis in blood; cited from earlier work.
For data set [14] the following is noted: ingestion of 500-650 mg aspirin; cited from earlier work.
A further data set concerns COX-1. The settings on record: cited from earlier work.

Where “and” joins values, the source holds several entries; their conditions need not be identical. Identical values can stand only once. Like-named read-outs stand apart in the source and are kept apart here.

T1 sequence (P23219 24-599): as the sequence (P23219 24-599 R108Q) above, with Q85R counted along it

As to `CS(=O)(=O)Nc1ccc([N+](=O)[O-])cc1OC1CCCCC1` [NS-398], at wildtype human PGHS-1 [1], the “Type of COX inhibition” value is recorded as “reversible, competitive inhibitor”. Also, the “Antagonism of PGHS-1 inactivation by aspirin” value in the data set with PGHS-1 [2] is reported as “potent antagonist”. Moreover, the “Effect on COX catalysis” value in the data set with PGHS-1 [2] (even at low arachidonate levels) is listed as “lack effect on COX catalysis”.

Turning to `CCCCC/C=C\C/C=C\C/C=C\C/C=C\CCCC(=O)O` [arachidonate], the Km came to 1.5 ± 0.4 µM at wildtype human PGHS-1 [3] (0.025% Tween 20); 19.8 ± 3.7 µM on wildtype human PGHS-1 [3] (0.165% Tween 20); 2.8 ± 0.4 µM in data set [4] (read-out: COX Km (μM arachidonate), 0.025% Tween 20, 37 °C); 29.7 ± 3.3 µM in data set [4] (read-out: COX Km (μM arachidonate), 0.165% Tween 20, 37 °C); 1.8 ± 0.3 µM on PGHS-1 L237M variant [5]; 1.8 ± 0.2 µM on PGHS-1 V481I variant [6]. Besides, the “Elevated arachidonate Km compared to wildtype” value in [4] amounted to 1.9 fold. The “Km value above the wildtype value” in data set [4] (0.165% Tween 20) came out at 50%. Besides, the “Increase in Km value vs wildtype” value in data set [4] (standard conditions) came out at 86%.

For `CC(=O)Oc1ccccc1C(=O)O` [aspirin, acetylsalicylic acid], the “Aspirin reactivity (relative), k2'/[aspirin] normalized to wildtype value” at wildtype human PGHS-1 [7] is listed as 1.00 ± 0.10 (n = 9); on PGHS-1 R53H variant it was 0.91 ± 0.07 (n = 9) p = 0.042; in [8] (R108Q, 37 °C, preincubation with 0.4-5.3 mM aspirin, average ± SD) it was 0.40 ± 0.05 (n = 7) p = 0.0001; at PGHS-1 L237M variant [9], 0.86 ± 0.05 (n = 9) p = 0.001; on PGHS-1 V481I variant [10], 0.82 ± 0.10 (n = 9) p = 0.001. Further, the “Lower aspirin reactivity compared to wildtype” value in data set [8] (R108Q vs wildtype) is 60%. The “k2'/aspirin (≈ k2/Ki) as percent of the wildtype value” in data set [8] (R108Q, 37 °C) came to 40%. Besides, the “Decrease in k2 (rate constant for acetyl group transfer) vs wildtype” value in data set [11] is 30%. In addition, the “Increase in Ki for aspirin vs wildtype” value in data set [11] amounted to 70%. In data set [11], the “k2/Ki as percent of that for wildtype” value was found to be 42%. Further, the Aspirin reactivity with ovine PGHS-1 (ovine PGHS-1, 30°C) is 0.3 mM⁻¹ min⁻¹. Besides, on ovine PGHS-1 (read-out: Ki for aspirin, PGHS-1 (ovine)), the Ki is ~20 mM and 14 to 20 mM. In addition, the IC50 in the data set on PGHS-1 [12] is 0.002 mM. Also, the “t1/2 of aspirin in blood” value in data set [13] is ~ 15 min. Moreover, in [14], the “Peak plasma aspirin level” value was 30 to 80 µM. For the same compound, in [14], the “Time of plasma aspirin peak” value is ~ 30 min.

As for `O=C(O)c1ccccc1O` [salicylic acid], the COX-1 inhibition result in the data set on COX-1 is given as “negligible COX-1 inhibitor”.

Usually Km stands for the substrate concentration at which the rate is half of its maximum. Broadly, the Ki is the dissociation constant of the complex between target and ligand, obtained from inhibition or displacement. For orientation: IC50 means the midpoint of a concentration-inhibition curve.

(Values after article PMC3376194 (Pharmacogenetics and Genomics, 2012).)
